The text below walks through data of patent publication US12441691B2 (Cytokinetics, Inc., priority 2020, dated 2025).

Each structure is given as a SMILES string.

The subject of this assay is rabbit skeletal myofibrils (fast skeletal myofibrils). Description: Activation of fast skeletal myofibrils (PUMA assay, AC1.4). The class given is biochemical. The following applies: calcium at pCa25, AC1.4 = concentration at which the compound increased the enzymatic activity. The essentials: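 Detergent-washed rabbit psoas myofibrils (~90% fast fibers), calcium set to give 25% of maximal rate (pCa25). ATPase followed by pyruvate kinase/lactate dehydrogenase-coupled NADH oxidation, absorbance at 340 nm. PM12 buffer: 12 mM PIPES, 2 mM MgCl2, 1 mM DTT, pH 6.8.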
With `CC[C@H](C)[C@H]1C(=O)Nc2ccccc2CN1C(=O)c1cnccn1` [Compound 108, (S)-3-((S)-sec-butyl)-4-(pyrazine-2-carbonyl)-1,3,4,5-tetrahydro-2H-benzo[e][1,4]diazepin-2-one], the AC1.4 stood at 0.19 µM. The result for `CC[C@H](C)[C@H]1C(=O)Nc2ccccc2CN1C(=O)c1cnc(C(N)=O)cn1` [Compound 109, 5-((S)-3-((S)-sec-butyl)-2-oxo-2,3,4,5-tetrahydro-1H-benzo[e][1,4]diazepine-4-carbonyl)pyrazine-2-carboxamide] reads 0.17 µM. With `CC[C@H](C)[C@H]1C(=O)Nc2ccccc2CN1C(=O)CS(N)(=O)=O` [Compound 110, 2-((S)-3-((S)-sec-butyl)-2-oxo-1,2,3,5-tetrahydro-4H-benzo[e][1,4]diazepin-4-yl)-2-oxoethane-1-sulfonamide] the figure was 1.36 µM; with `CC[C@H](C)[C@H]1C(=O)Nc2ccccc2CN1C(=O)CS(C)(=O)=O` [Compound 111, (S)-3-((S)-sec-butyl)-4-(2-(methylsulfonyl)acetyl)-1,3,4,5-tetrahydro-2H-benzo[e][1,4]diazepin-2-one], 4.90 µM. Consider `CC[C@H](C)[C@H]1C(=O)Nc2ccccc2CN1/C(N)=N/S(C)(=O)=O` [Compound 112, (S,E)-3-((S)-sec-butyl)-N′-(methylsulfonyl)-2-oxo-1,2,3,5-tetrahydro-4H-benzo[e][1,4]diazepine-4-carboximidamide], for which the AC1.4 worked out at 0.81 µM. The result for `CC[C@H](C)[C@H]1C(=O)Nc2ccccc2CN1/C(N)=N/C(C)=O` [Compound 113, N-((E)-amino((S)-3-((S)-sec-butyl)-2-oxo-1,2,3,5-tetrahydro-2H-benzo[e][1,4]diazepin-4-yl)methylene)acetamide] reads 0.15 µM; that for `CC[C@H](C)[C@H]1C(=O)Nc2ccccc2CN1c1ncccn1` [Compound 114, (S)-3-((S)-sec-butyl)-4-(pyrimidin-2-yl)-1,3,4,5-tetrahydro-2H-benzo[e][1,4]diazepin-2-one], 0.05 µM; that for `CC[C@H](C)[C@H]1C(=O)Nc2ccccc2CN1c1cc(=O)n(C)cn1` [Compound 115, (S)-3-((S)-sec-butyl)-4-(1-methyl-6-oxo-1,6-dihydropyrimidin-4-yl)-1,3,4,5-tetrahydro-2H-benzo[e][1,4]diazepin-2-one], 0.08 µM. The result for `CC[C@H](C)[C@H]1C(=O)Nc2ccccc2CN1c1nc(OC)cc(OC)n1` [Compound 116, (S)-3-((S)-sec-butyl)-4-(4,6-dimethoxypyrimidin-2-yl)-1,3,4,5-tetrahydro-2H-benzo[e][1,4]diazepin-2-one] reads 0.05 µM; that for `CC[C@H](C)[C@H]1C(=O)Nc2ccccc2CN1c1nc(N)nn1C` [Compound 117, (S)-4-(3-amino-1-methyl-1H-1,2,4-triazol-5-yl)-3-((S)-sec-butyl)-1,3,4,5-tetrahydro-2H-benzo[e][1,4]diazepin-2-one], 0.07 µM.

Take `CC[C@H](C)[C@H]1C(=O)Nc2ccccc2CN1c1nc(N)n(C)n1` [Compound 118, (S)-4-(5-amino-1-methyl-1H-1,2,4-triazol-3-yl)-3-((S)-sec-butyl)-1,3,4,5-tetrahydro-2H-benzo[e][1,4]diazepin-2-one]: the AC1.4 was 0.08 µM. The result for `CC[C@H](C)[C@H]1C(=O)Nc2ccccc2CN1S(=O)(=O)CCOC` [Compound 119, (S)-3-((S)-sec-butyl)-4-((2-methoxyethyl)sulfonyl)-1,3,4,5-tetrahydro-2H-benzo[e][1,4]diazepin-2-one] reads 2.44 µM; that for `CC[C@H](C)[C@H]1C(=O)Nc2ccccc2CN1S(=O)(=O)NC` [Compound 120, (S)-3-((S)-sec-butyl)-N-methyl-2-oxo-1,2,3,5-tetrahydro-4H-benzo[e][1,4]diazepine-4-sulfonamide], 0.12 µM; that for `NC(=O)N1Cc2ccccc2NC(=O)[C@@H]1C1CCC1` [Compound 121, (S)-3-cyclobutyl-2-oxo-1,2,3,5-tetrahydro-4H-benzo[e][1,4]diazepine-4-carboxamide], 4.80 µM. The result for `Cn1cc(C(=O)N2Cc3ccccc3NC(=O)[C@@H]2C2CCC2)cn1` [Compound 122, (S)-3-cyclobutyl-4-(1-methyl-1H-pyrazole-4-carbonyl)-1,3,4,5-tetrahydro-2H-benzo[e][1,4]diazepin-2-one] reads 3.16 µM. With `NC(=O)N1Cc2ccccc2NC(=O)[C@@H]1C1CCCC1` [Compound 123, (S)-3-cyclopentyl-2-oxo-1,2,3,5-tetrahydro-4H-benzo[e][1,4]diazepine-4-carboxamide] the figure was 0.35 µM; with `O=C1Nc2ccccc2CN(C(=O)CCO)[C@H]1C1CCCCC1` [Compound 124, (S)-3-cyclohexyl-4-(3-hydroxypropanoyl)-1,3,4,5-tetrahydro-2H-benzo[e][1,4]diazepin-2-one], 0.38 µM; with `NC(=O)c1ccc(C(=O)N2Cc3ccccc3NC(=O)[C@@H]2C2CCCCC2)cc1` [Compound 125, (S)-4-(3-cyclohexyl-2-oxo-2,3,4,5-tetrahydro-1H-benzo[e][1,4]diazepine-4-carbonyl)benzamide], 0.29 µM. Turning to `O=C1Nc2ccccc2CN(C(=O)c2ccco2)[C@H]1C1CCCCC1` [Compound 128, (S)-3-cyclohexyl-4-(furan-2-carbonyl)-1,3,4,5-tetrahydro-2H-benzo[e][1,4]diazepin-2-one], the AC1.4 amounted to 0.06 µM.

Regarding `CCC(CC)[C@H]1C(=O)Nc2ccccc2CN1C(N)=O` [Compound 129, (S)-2-oxo-3-(pentan-3-yl)-1,2,3,5-tetrahydro-4H-benzo[e][1,4]diazepine-4-carboxamide], the AC1.4 turned out to be 0.10 µM. For `CC[C@H](C)[C@H]1C(=O)Nc2ccccc2CN1c1c(NC)c(=O)c1=O` [Compound 130, 3-((S)-3-((S)-sec-butyl)-2-oxo-1,2,3,5-tetrahydro-4H-benzo[e][1,4]diazepin-4-yl)-4-(methylamino)cyclobut-3-ene-1,2-dione], the AC1.4 turned out to be 0.06 µM.

With `CC[C@H](C)[C@H]1C(=O)Nc2ccccc2CN1c1c(N(C)C)c(=O)c1=O` [Compound 131, 3-((S)-3-((S)-sec-butyl)-2-oxo-1,2,3,5-tetrahydro-4H-benzo[e][1,4]diazepin-4-yl)-4-(dimethylamino)cyclobut-3-ene-1,2-dione], the AC1.4 stood at 0.02 µM. On to `CC[C@H](C)[C@H]1C(=O)Nc2ccccc2CN1c1c(NCCO)c(=O)c1=O` [Compound 132, 3-((S)-3-((S)-sec-butyl)-2-oxo-1,2,3,5-tetrahydro-4H-benzo[e][1,4]diazepin-4-yl)-4-((2-hydroxyethyl)amino)cyclobut-3-ene-1,2-dione], for which the AC1.4 stood at 0.07 µM. The result for `CC[C@H](C)[C@H]1C(=O)Nc2ccccc2CN1C(=O)N(C)CCN(C)C` [Compound 133, (S)-3-((S)-sec-butyl)-N-(2-(dimethylamino)ethyl)-N-methyl-2-oxo-1,2,3,5-tetrahydro-4H-benzo[e][1,4]diazepine-4-carboxamide] reads 0.48 µM; that for `CC[C@H](C)[C@H]1C(=O)Nc2ccccc2CN1C(=O)N1CCC(O)CC1` [Compound 134, (S)-3-((S)-sec-butyl)-4-(4-hydroxypiperidine-1-carbonyl)-1,3,4,5-tetrahydro-2H-benzo[e][1,4]diazepin-2-one], 0.71 µM.
